Entries after “also recorded” stand apart in the source; their conditions may differ.
Tested on: MEC-1 cells
Assay: ADCC cytotoxicity (target cell killing) of MEC-1 cells with NK cells, MOR00208 and Idelalisib alone and in combination
Assay type: cell-based, human
Method: The cytotoxicity of MOR00208 and Idelalisib alone and in combination were tested in the MEC-1 cell line.
Idelalisib is a phosphoinositide 3-kinase inhibitor; more specifically, it blocks P110δ, the delta isoform of the enzyme phosphoinositide 3-kinase. […] MOR00208 targets CD19 and mediates target cell killing via ADCC.
The following were used as controls: a) MEC-1 cells+RefmAb33+DMSO+NK cells, b) MEC-1 cells+DMSO+NK cells, c) MEC-1 cells+DMSO.
Target cell killing was measured using the following parameters: Idelalisib at concentrations of 0.3, 1, 3 and 10 μM; MOR00208 at concentrations of 1.5, 0.015 and 0.0015 μg/ml and the combination of MOR00208 and Idelalisib at the same concentrations.
In the Idelalisib group, […] in the MOR00208+Idelalisib combination group, target cells were pre-treated with Idelalisib for 7 days prior to the ADCC assay measurements. The target cells were counted and stained using 10 μM CFSE end concentration. For DMSO treated target cells, an effector:target (E:T) ratio of 2:1 is chosen, corresponding to a cell density of 5×10^5/ml. The proliferative effect on target cells caused by Idelalisib treatment was included by adjusting the E:T ratio in inhibitor treated cells. The NK cells are counted and adjusted to 1×10^6/ml. The target cell killing assays were performed as follows: using 96 well plates, 100 μl of target cell suspension was added per well, followed by 100 μl cell suspension of NK cells to each well resulting in an E:T ratio of 2:1. The antibodies were diluted in a range of 10-0.00001 nM (corresponding to 1.5-0.0000015 μg/ml) in medium. Cells were centrifuged and target:effector cell-pellets were re-suspended in 100 μl antibody-containing medium or the according control solution. The assay was incubated for 4 h in CO2-incubator at 37° C. After 10 min incubation on ice, 50 μl DAPI solution was added to each well (final concentration 1 μg/ml) and incubated on ice for 10 min. The cell killing measurements were performed with FACS-Verse. Dead target cells were DAPI positive.
In total, six experiments were performed in order to determine the mediation of ADCC on MEC-1 cells by the combination of MOR00208 and Idelalisib. […] The autoreactivity of the NK cells prevented a proper analysis in those two experiments.
The % dead cells (raw data) from Tables 1-16 was analysed in the following way:
[formula] [formula] [formula] where A is the treatment with MOR00208 alone; B is the treatment with Idelalisib alone; C is response to the control DMSO+RefMab33; AB is the combination of treatments A and B.
In order to confirm the results of synergy as calculated using Clarke et al. above, the Combination Index (CI) method was applied to the % dead cells (raw data) of Tables 1-16. For CI calculations, we used 0.3, 1, 3 and 10 μM Idelalisib and three MOR208 concentrations (1.5, 0.015 and 0.0015 μg/ml).

[1] = Experiment 1, Idelalisib 0.3 μM, MOR00208 0.01 nM (0.0015 μg/ml)
[2] = Experiment 1, Idelalisib 0.3 μM, MOR00208 0.1 nM (0.015 μg/ml)
[3] = Experiment 1, Idelalisib 0.3 μM, MOR00208 10 nM (1.5 μg/ml)
[4] = Experiment 1, Idelalisib 1 μM, MOR00208 0.01 nM (0.0015 μg/ml)
[5] = Experiment 1, Idelalisib 1 μM, MOR00208 0.1 nM (0.015 μg/ml)
[6] = Experiment 1, Idelalisib 1 μM, MOR00208 10 nM (1.5 μg/ml)
[7] = Experiment 1, Idelalisib 3 μM, MOR00208 0.01 nM (0.0015 μg/ml)
[8] = Experiment 1, Idelalisib 3 μM, MOR00208 0.1 nM (0.015 μg/ml)
[9] = Experiment 1, Idelalisib 3 μM, MOR00208 10 nM (1.5 μg/ml)
[10] = Experiment 1, Idelalisib 10 μM, MOR00208 0.01 nM (0.0015 μg/ml)
[11] = Experiment 1, Idelalisib 10 μM, MOR00208 0.1 nM (0.015 μg/ml)
[12] = Experiment 1, Idelalisib 10 μM, MOR00208 10 nM (1.5 μg/ml)
[13] = Experiment 2, Idelalisib 0.3 μM, MOR00208 0.01 nM (0.0015 μg/ml)
[14] = Experiment 2, Idelalisib 0.3 μM, MOR00208 0.1 nM (0.015 μg/ml)
[15] = Experiment 2, Idelalisib 0.3 μM, MOR00208 10 nM (1.5 μg/ml)
[16] = Experiment 2, Idelalisib 1 μM, MOR00208 0.01 nM (0.0015 μg/ml)
[17] = Experiment 2, Idelalisib 1 μM, MOR00208 01 nM (0.015 μg/ml)
[18] = Experiment 2, Idelalisib 1 μM, MOR00208 10 nM (1.5 μg/ml)
[19] = Experiment 2, Idelalisib 3 μM, MOR00208 0.01 nM (0.0015 μg/ml)
[20] = Experiment 2, Idelalisib 3 μM, MOR00208 0.1 nM (0.015 μg/ml)
[21] = Experiment 2, Idelalisib 3 μM, MOR00208 10 nM (1.5 μg/ml)
[22] = Experiment 2, Idelalisib 10 μM, MOR00208 0.01 nM (0.0015 μg/ml)
[23] = Experiment 2, Idelalisib 10 μM, MOR00208 0.1 nM (0.015 μg/ml)
[24] = Experiment 2, Idelalisib 10 μM, MOR00208 10 nM (1.5 μg/ml)
[25] = Experiment 3, Idelalisib 0.3 μM, MOR00208 0.01 nM (0.0015 μg/ml)
[26] = Experiment 3, Idelalisib 0.3 μM, MOR00208 0.1 nM (0.015 μg/ml)
[27] = Experiment 3, Idelalisib 0.3 μM, MOR00208 10 nM (1.5 μg/ml)
[28] = Experiment 3, Idelalisib 1 μM, MOR00208 0.01 nM (0.0015 μg/ml)
[29] = Experiment 3, Idelalisib 1 μM, MOR00208 0.1 nM (0.015 μg/ml)
[30] = Experiment 3, Idelalisib 1 μM, MOR00208 10 nM (1.5 μg/ml)
[31] = Experiment 3, Idelalisib 3 μM, MOR00208 0.01 nM (0.0015 μg/ml)
[32] = Experiment 3, Idelalisib 3 μM, MOR00208 0.1 nM (0.015 μg/ml)
[33] = Experiment 3, Idelalisib 3 μM, MOR00208 10 nM (1.5 μg/ml)
[34] = Experiment 3, Idelalisib 10 μM, MOR00208 0.01 nM (0.0015 μg/ml)
[35] = Experiment 3, Idelalisib 10 μM, MOR00208 0.1 nM (0.015 μg/ml)
[36] = Experiment 3, Idelalisib 10 μM, MOR00208 10 nM (1.5 μg/ml)
[37] = Experiment 4, Idelalisib 0.3 μM, MOR00208 0.01 nM (0.0015 μg/ml)
[38] = Experiment 4, Idelalisib 0.3 μM, MOR00208 0.1 nM (0.015 μg/ml)
[39] = Experiment 4, Idelalisib 0.3 μM, MOR00208 10 nM (1.5 μg/ml)
[40] = Experiment 4, Idelalisib 1 μM, MOR00208 0.01 nM (0.0015 μg/ml)
[41] = Experiment 4, Idelalisib 1 μM, MOR00208 0.1 nM (0.015 μg/ml)
[42] = Experiment 4, Idelalisib 1 μM, MOR00208 10 nM (1.5 μg/ml)
[43] = Experiment 4, Idelalisib 3 μM, MOR00208 0.01 nM (0.0015 μg/ml)
[44] = Experiment 4, Idelalisib 3 μM, MOR00208 0.1 nM (0.015 μg/ml)
[45] = Experiment 4, Idelalisib 3 μM, MOR00208 10 nM (1.5 μg/ml)
[46] = Experiment 4, Idelalisib 10 μM, MOR00208 0.01 nM (0.0015 μg/ml)
[47] = Experiment 4, Idelalisib 10 μM, MOR00208 0.1 nM (0.015 μg/ml)
[48] = Experiment 4, Idelalisib 10 μM, MOR00208 10 nM (1.5 μg/ml)

With `CC[C@H](Nc1ncnc2nc[nH]c12)c1nc2cccc(F)c2c(=O)n1-c1ccccc1` [Idelalisib] the “effect of the Idelalisib group greater than the control” value (Experiment 1, Tables 1-3) was roughly 4%, the “% dead cells” value [1] was 6.8% and the “% dead cells” value [2] was 6.8%. The “% dead cells” value [3] was 6.8%, the “% dead cells” value [4] was 10.8% and the “% dead cells” value [5] was 10.8%. The “% dead cells” value [6] was 10.8%, the “% dead cells” value [7] was 11.3% and the “% dead cells” value [8] was 11.3%. The “% dead cells” value [9] was 11.3%, the “% dead cells” value [10] was 11.6% and the “% dead cells” value [11] was 11.6%. For the same molecule, the “% dead cells” value [12] was 11.6%, the “% dead cells” value [13] was 20.8% and the “% dead cells” value [14] was 20.8%. For the same molecule, the “% dead cells” value [15] was 20.8%, the “% dead cells” value [16] was 20.7% and the “% dead cells” value [17] was 20.7%. For the same molecule, the “% dead cells” value [18] was 20.7%, the “% dead cells” value [19] was 14.6% and the “% dead cells” value [20] was 14.6%. For the same molecule, the “% dead cells” value [21] was 14.6%, the “% dead cells” value [22] was 14.7% and the “% dead cells” value [23] was 14.7%. The “% dead cells” value [24] was 14.7%, the “% dead cells” value [25] was 17.3% and the “% dead cells” value [26] was 17.3%. For the same molecule, the “% dead cells” value [27] was 17.3%, the “% dead cells” value [28] was 18.7% and the “% dead cells” value [29] was 18.7%. The “% dead cells” value [30] was 18.7%, the “% dead cells” value [31] was 14.0% and the “% dead cells” value [32] was 14.0%. The “% dead cells” value [33] was 14.0%, the “% dead cells” value [34] was 11.5% and the “% dead cells” value [35] was 11.5%. For the same molecule, the “% dead cells” value [36] was 11.5%, the “% dead cells” value [37] was 15.5% and the “% dead cells” value [38] was 15.5%. For the same molecule, the “% dead cells” value [39] was 15.5%, the “% dead cells” value [40] was 15.9% and the “% dead cells” value [41] was 15.9%. The “% dead cells” value [42] was 15.9%, the “% dead cells” value [43] was 13.8% and the “% dead cells” value [44] was 13.8%. The “% dead cells” value [45] was 13.8%, the “% dead cells” value [46] was 12.1% and the “% dead cells” value [47] was 12.1%. The “% dead cells” value [48] was 12.1% and the “cytotoxic effects against MEC-1 cells” value (Idelalisib alone) was “little to no cyctotoxic effects; also recorded: low cytotoxity activity”.

B1: MOR00208: anti-CD19 antibody; variable domains in FIG. 1, Fc regions in FIG. 2 (antibody)
heavy: EVQLVESGGGLVKPGGSLKLSCAASGYTFTSYVMHWVRQAPGKGLEWIGYINPYNDGTKYNEKFQGRVTISSDKSISTAYMELSSLRSEDTAMYYCARGTYYYGTRVFDYWGQGTLVTVSSASTKGPSVFPLAPSSKSTSGGTAALGCLVKDYFPEPVTVSWNSGALTSGVHTFPAVLQSSGLYSLSSVVTVPSSSLGTQTYICNVNHKPSNTKVDKKVEPKSCDKTHTCPPCPAPELLGGPDVFLFPPKPKDTLMISRTPEVTCVVVDVSHEDPEVQFNWYVDGVEVHNAKTKPREEQFNSTFRVVSVLTVVHQDWLNGKEYKCKVSNKALPAPEEKTISKTKGQPREPQVYTLPPSREEMTKNQVSLTCLVKGFYPSDIAVEWESNGQPENNYKTTPPMLDSDGSFFLYSKLTVDKSRWQQGNVFSCSVMHEALHNHYTQKSLSLSPGK
light: DIVMTQSPATLSLSPGERATLSCRSSKSLQNVNGNTYLYWFQQKPGQSPQLLIYRMSNLNSGVPDRFSGSGSGTEFTLTISSLEPEDFAVYYCMQHLEYPITFGAGTKLEIKRTVAAPSVFIFPPSDEQLKSGTASVVCLLNNFYPREAKVQWKVDNALQSGNSQESVTEQDSKDSTYSLSSTLTLSKADYEKHKVYACEVTHQGLSSPVTKSFNRGEC
For B1, the “% dead cells” value [1] was 40.3%, the “% dead cells” value [2] was 63.1% and the “% dead cells” value [3] was 62.9%. For the same molecule, the “% dead cells” value [4] was 40.3%, the “% dead cells” value [5] was 63.1% and the “% dead cells” value [6] was 62.9%. For the same molecule, the “% dead cells” value [7] was 40.3%, the “% dead cells” value [8] was 63.1% and the “% dead cells” value [9] was 62.9%. The “% dead cells” value [10] was 40.3%, the “% dead cells” value [11] was 63.1% and the “% dead cells” value [12] was 62.9%. For the same molecule, the “% dead cells” value [13] was 52.9%, the “% dead cells” value [14] was 78.9% and the “% dead cells” value [15] was 85.6%. The “% dead cells” value [16] was 52.9%, the “% dead cells” value [17] was 78.9% and the “% dead cells” value [18] was 85.6%. The “% dead cells” value [19] was 52.9%, the “% dead cells” value [20] was 78.9% and the “% dead cells” value [21] was 85.6%. For the same molecule, the “% dead cells” value [22] was 52.9%, the “% dead cells” value [23] was 78.9% and the “% dead cells” value [24] was 85.6%. For the same molecule, the “% dead cells” value [25] was 43.5%, the “% dead cells” value [26] was 59.5% and the “% dead cells” value [27] was 62.0%. The “% dead cells” value [28] was 43.5%, the “% dead cells” value [29] was 59.5% and the “% dead cells” value [30] was 62.0%. For the same molecule, the “% dead cells” value [31] was 43.5%, the “% dead cells” value [32] was 59.5% and the “% dead cells” value [33] was 62.0%. For the same molecule, the “% dead cells” value [34] was 43.5%, the “% dead cells” value [35] was 59.5% and the “% dead cells” value [36] was 62.0%. For the same molecule, the “% dead cells” value [37] was 56.3%, the “% dead cells” value [38] was 73.3% and the “% dead cells” value [39] was 74.6%. The “% dead cells” value [40] was 56.3%, the “% dead cells” value [41] was 73.3% and the “% dead cells” value [42] was 74.6%. The “% dead cells” value [43] was 56.3%, the “% dead cells” value [44] was 73.3% and the “% dead cells” value [45] was 74.6%. For the same molecule, the “% dead cells” value [46] was 56.3%, the “% dead cells” value [47] was 73.3% and the “% dead cells” value [48] was 74.6%.
